Measurements as given in patent US20230270764A1, “COMPOSITION COMPRISING CANNABINOIDS, TERPENES, AND FLAVONOIDS FOR TREATING DEPRESSION” (priority 2020, published 2023).
pIC50: −log10 of the molar value. Where two headings read alike, the source gives them in different places.

Legend:
BV2 microglial cells = experiment: LPS-induced IL-1β release by BV2 microglia cell cultures (ELISA); format: cell-based, murine; conditions: for IL-1β secretion vs Veh plus LPS: Example 4, by itself at 5 µM, not at 1 or 2.5 µM; for pIC50: Mus musculus
Experimental: The BV2 murine microglial cell line is used in these studies.
The BV2 cells are cultured at 37° C. in a humidified atmosphere with 5% CO2 in high D-glucose (4.5 g/L) Dulbecco’s modified Eagle’s medium (Sigma, Rehovot, Israel) supplemented with 5% heat-inactivated fetal bovine serum, streptomycin (100 µg/ml), and penicillin (100 units/ml) and sodium pyruvate (1 mM; all from Biological Industries Ltd., Kibbutz Beit Haemek, Israel). 24 hours before experiments with LPS stimulation, the BV2 cells are split into 24 well plates, 2×10^5 cells per well, covered with 1 ml of growth medium and allowed to attach overnight. 24 hr before experiments with α-synuclein, the BV2 cells are split into 96-well plates, 50,000 (5×10^4) cells per well, covered with 200 µl of growth medium and allowed to attach overnight. Cultures of BV2 microglia cells are first treated by an individual cannabinoid, or terpene or flavonoid selected from: Cannabidiol (CBD), Δ-9-tetrahydrocannabinol (THC), Δ-8-tetrahydrocannabinol (THC), cannabigerol (CBG), cannabichromene (CBC), cannabigerolic acid (CBGA), Cannabidiolic acid (CBDA), THC acid (THCA), cannabichromenic Acid (CBCA), Cannabidivarin (CBDV), tetrahydrocannabivarin (THCV), Cannabichromevarin (CBCV), Cannabichromerocin ([…]), Cannabivarin (CBV), Cannabicitran (CBT), Cannabinol (CBN), Cannabicyclol (CBL), Cannabigerorcin (CBGO), Cannabinodiol (CBND), β-caryophyllene, β-elemene, β-myrcene, linalool, α-pinene, β-pinene, eucalyptol, alpha-terpineol, valencene, geraniol (lemonol), bisabolol, nerolidol, ocimene, terpinolene, humulene, α-terpinene, camphene, fenchol, α-phellandrene, Δ3-carene, γ-cardinene, sabinene, limonene, β-amyrin, cycloartenol, cannflavin A, cannflavin B, kaempferol, quercetin, luteolin, apigenin, canniprene, orientin, β-sitosterol, vitexin, isovitexin, and chrysin. Additional cultures of BV2 microglia cells are treated by an individual cannabinoid, with at least one additional cannabinoid, and/or terpene, and/or flavonoid, and/or celecoxib. Additional cultures are exposed to the vehicle of these compounds (cremophor, ethanol and PBS, 1:1:18 (v/v/v)) (FIG. 2A). In some studies, cultures of BV2 microglia cells are treated by a specific whole plant cannabis extract, with or without supplementation with cannabinoid(s), and/or terpene(s) and/or flavonoid(s), and/or celecoxib (FIG. 2B).
For each individual cannabinoid mentioned above, 3-4 concentrations are used, ranging from 0.1 to 10 µM. For ultra-low dose Δ9-THC the concentration used is 0.01 µM. For each individual terpene or flavonoid mentioned above, 3-4 concentrations are used, ranging from 1 to 50 µM. For celecoxib, 3-4 concentrations are used, ranging from 0.1 to 10 µM. Two hours following the treatment, the cultures are exposed to one of the following microglia stimulators: LPS (Sigma L2630; Escherichia coli serotype O111:B4) is dissolved in D-PBS (Sigma, D8537) to a pre-stock concentration of 1 mg/ml, aliquoted and stored at -80° C. Stock solution of LPS at 10 ug/ml is prepared using sterile D-PBS, followed by filtering via 0.22 µm filter membrane, aliquoting and storing in -20° C. LPS is applied into the cell medium at a final concentration of 100 ng/ml. Poly I:C (Sigma, P1530) was first dissolved in sterile, molecular grade water to the concentration of 10 mg/ml (following the manufacturer’s instructions). This stock solution was further diluted to the concentration of 1 mg/ml in sterile PBS, and the aliquots stored in -20 °C.

LPS-injected mice = experiment: Sucrose preference test in the LPS-induced model of depression; format: in vivo
[1] = adult (6-9 months-old) male mice, acute CBD
[2] = young-adult male mice, CBD 30 mg/kg i.p. 3 consecutive days

C=C(C)[C@@H]1CCC(C)=C[C@H]1c1c(O)cc(CCCCC)cc1O [CBD, cannabidiol]
IL-1β levels (BV2 microglial cells; Example 3, 5 and 10 µM): effectively reduced
IL-1β secretion vs Veh plus LPS (BV2 microglial cells): effective in decreasing IL-1β
IL-1β release vs Veh plus LPS (BV2 microglial cells; Example 5, alone at 5 µM, no effect at 1 and 2.5 µM): decreased the IL-1β levels significantly
LPS-induced IL-1β secretion (BV2 microglial cells; Example 7, CBD 5 µM by itself (p<0.001)): significant suppression of IL-1β secretion
LPS-induced IL-1β release (BV2 microglial cells; Example 25, CannA, CannB 2.5, 5 and 10 µM, CBD, CannC 5 and 10 µM): significantly reduced
pIC50 (BV2 microglial cells; BV-2, read-out: CBD IC50, LPS-induced IL-1β release, Example 4, addition of 1 µM kaempferol): 5.48
pIC50 (BV2 microglial cells; BV-2, read-out: CBD IC50, LPS-induced IL-1β release, Example 4, addition of 2.5 µM kaempferol): 5.68
pIC50 (BV2 microglial cells; BV-2, read-out: CBD IC50, LPS-induced IL-1β release, Example 4, addition of 5 µM kaempferol): 5.96
pIC50 (BV2 microglial cells; BV-2, read-out: CBD IC50, LPS-induced IL-1β release, Example 5, addition of 1 µM quercetin): 5.68
pIC50 (BV2 microglial cells; BV-2, read-out: CBD IC50, LPS-induced IL-1β release, Example 5, addition of 2.5 µM quercetin): 5.77
pIC50 (BV2 microglial cells; BV-2, read-out: CBD IC50, LPS-induced IL-1β release, Example 5, addition of 5 µM quercetin): 6.30
pIC50 (BV2 microglial cells; BV-2, read-out: IC50 for IL-1β inhibition, Example 25 (FIG. 25F), extracts calculated on dominant cannabinoid): 5.33
pIC50 (BV2 microglial cells; BV-2, read-out: IC50 for inhibiting LPS-induced IL-1β release, Example 4 (FIG. 5D), by itself): 5.35
pIC50 (BV2 microglial cells; BV-2, read-out: IC50 for inhibiting LPS-induced IL-1β release, Example 5 (FIG. 6D), by itself): 5.48
sucrose preference vs vehicle-LPS group (LPS-injected mice; Example 18, celecoxib 10, 20, 30 mg/kg or CBD 30 mg/kg by themselves): no significant effects
sucrose consumption, LPS-injected groups (LPS-injected mice; [1]): significant difference between the CBD- and vehicle-treated group
sucrose preference (LPS-injected mice; [1]): reduction in the negative effect of LPS on sucrose preference
sucrose preference and sucrose consumption (LPS-injected mice; adult and young adult female mice, acute CBD, saline or LPS): None of these parameters was influenced by treatment with CBD
sucrose preference compared with the saline-injected control group (LPS-injected mice; adult female mice, LPS, CBD 30 mg/kg, CBD 30 mg plus kaempferol 60 mg): significantly reduced sucrose preference
LPS-induced decreases in sucrose preference and sucrose consumption (LPS-injected mice; young adult (2.5-3 months old) male mice, acute CBD): None of these parameters was influenced by treatment with CBD
sucrose consumption, main effect of CBD (LPS-injected mice; young-adult female mice, acute CBD, difference among saline-injected mice): significantly reduced
LPS-induced reduction in sucrose consumption (LPS-injected mice; [2]): no effect
LPS-induced suppression of sucrose preference (LPS-injected mice; [2]): completely reversed

C=C(C)[C@@H]1CCC(C)=C[C@H]1c1c(O)cc(CCCCC)c(C(=O)O)c1O [CBDA, Cannabidiolic acid]
sucrose consumption vs Vehicle-treated LPS-injected mice (LPS-injected mice; young-adult female mice, CBDA 1 mg/kg (not 0.5 or 5)): significantly increased
sucrose preference vs Vehicle-treated LPS-injected mice (LPS-injected mice; young-adult female mice, CBDA 1 mg/kg (not 0.5 or 5) i.p. 1 hr before LPS 330 µg/kg): significantly increased
sucrose consumption vs Vehicle-treated LPS-injected mice (LPS-injected mice; young-adult male mice, CBDA 1 mg/kg): significantly increased
sucrose preference vs Vehicle-treated LPS-injected mice (LPS-injected mice; young-adult male mice, CBDA 1 mg/kg (not 5)): significantly increased
sucrose consumption vs Vehicle-treated LPS-injected mice (LPS-injected mice; young-adult male mice, CBDA 5 mg/kg, CBD 25 mg/kg and CBDA 1 mg/kg): significant increase

O=c1c(O)c(-c2ccc(O)cc2)oc2cc(O)cc(O)c12 [kaempferol]
IL-1β secretion vs Veh plus LPS (BV2 microglial cells): effective in decreasing IL-1β
pIC50 (BV2 microglial cells; BV-2, Example 4 (FIG. 5D), by itself, read-out: IC50 for inhibiting LPS-induced IL-1β release): 5.21
